US5521319A, “Biotinylation reagent and method of use thereof” (priority 1993, dated 1996)
Values after ≈ are worked out from the molar mass of the structure shown.

Key:
[1] = cited from earlier work; for Solubility in organic solvents: organic solvents with the exception of DMSO and DMF
TSH [2] = assay: Electrochemiluminescence immunological determination of TSH with biotinylated antibody, ruthenium-labelled F(ab')2 and streptavidin magnetic particles
Source text: (§1) After dialysis against 25 mmol/l potassium phosphate/50 mmol/l sodium chloride pH 7.0, the product is lyophilized.

[3] = Solubility of biotinylation reagents at 20° C.; format: physicochemical; details: for Solubility in DMF / Solubility in dichloromethane / Solubility in methanol / Solubility in water: 20° C.
Source text: [table 1: the next 15 blocks are its lines as printed, fixed-width]

TSH [4] = assay: Immunological determination of TSH using streptavidin magnetic particles and photometric signal measurement
Source text: as §1

[5] = electrochemiluminescence measurement, vs biotin-NHS

Structure (SMILES)	Solubility in organic solvents [1]	Solubility in water and aqueous buffer solutions [1]	Signal of biotinylated antibodies compared with spacer-free biotin-NHS (TSH [2]; [5])	Solubility in DMF [3] [µg/mL]	Solubility in dichloromethane ([3]; dichloromethane) [µg/mL]	Solubility in methanol [3] [µg/mL]	Solubility in water ([3]; water) [µg/mL]	further results
O=C(CCCC[C@@H]1SC[C@@H]2NC(=O)N[C@@H]21)NCCCCCC(=O)ON1C(=O)CCC1=O [biotin-X-NHS, biotinoylaminocaproic acidN-hydroxysuccinimide ester]	only moderately soluble	only moderate solubility	considerably higher signals	10000 (≈ 22 mM)	< 1000	10000 (≈ 22 mM)	10000 (≈ 22 mM)	–
O=C(CCCC[C@@H]1SC[C@@H]2NC(=O)N[C@@H]21)NCCCCCC(=O)ON1C(=O)CCC1=O [NHS-LC-biotin]	–	–	–	20000 (≈ 44 mM)	–	20000 (≈ 44 mM)	2000 (≈ 4.4 mM)	–
O=C(CCCC[C@@H]1SC[C@@H]2NC(=O)N[C@@H]21)NCCCCCC(=O)ON1C(=O)CC(S(=O)(=O)O)C1=O (some centres unmarked) [sulfo-NHS-LC-biotin]	–	–	–	–	–	–	–	Solubility in an aqueous medium ([1]; aqueous medium): good solubility; Solubility in organic solvents in the required concentrations ([1]; organic solvents, in the required concentrations): not soluble
O=C1N[C@H]2[C@H](CS[C@H]2CCCCC(=O)ON2C(=O)CCC2=O)N1 [biotin-NHS, biotin-N-hydroxysuccinimide esters]	only moderately soluble	only moderate solubility	–	–	–	–	–	–
O=C(CCCCCCC(=O)ON1C(=O)CCC1=O)NCCOCCOCCNC(=O)CCCC[C@@H]1SC[C@@H]2NC(=O)N[C@@H]21 [biotin-DDS, biotinoyl-amino-3,6-dioxaoctanyl-aminocarbonyl-heptanoic acid-N-hydroxysuccinimide ester]	–	–	considerably higher signals	20000 (≈ 31.9 mM)	10000 (≈ 15.9 mM)	20000 (≈ 31.9 mM)	7000 (≈ 11.2 mM)	Performance of conjugates produced with the reagent, better than with biotin-NHS (TSH [2]; electrochemiluminescence and other immunological tests with spherical solid phases, vs biotin-NHS): about 3.5 fold; Performance of conjugates produced with the reagent, better than with biotin-X-NHS (TSH [2]; electrochemiluminescence and other immunological tests with spherical solid phases, vs biotin-X-NHS): 1.3 fold; Signal yield of antibodies biotinylated via biotin-DDS, higher than via biotin-X-NHS (TSH [2]; electrochemiluminescence measurement, vs antibodies biotinylated via biotin-X-NHS): 25.7%; Photometric signal of labelled antibody compared with biotin-X-NHS (TSH [4]; magnetic particle test with antibody-POD conjugate, vs antibody biotinylated with biotin-X-NHS): significantly higher signals; Degree of biotinylation giving the signal optimum (TSH [4]; photometric measurement): signal optimum at a lower degree of biotinylation; Solubility spectrum compared with known reagents ([3]; compared with biotinylation reagents of the state of the art): considerably broader solubility spectrum than known compounds; Solubility in strongly polar (water) and non-polar (dichloromethane) solvents ([3]; water, dichloromethane): good solubility
